Assay: Human HepG2 cell viability assay in 384 well format
Assay type: toxicity, cell-based
Design: dose 125 nL, time 70.5 hour; cytotoxicity at 70.5 h: concentration not given beside the values
Conditions: HepG2 cells, read-out: Inhibition

Compound | cytotoxicity at 70.5 h [%]
CC(C)c1noc(CCCC(=O)NC(C)c2ccccn2)n1 (stereo not given) | -9.67
CCc1cnc(C)nc1NCc1nc(COC)no1 | -6.43
CN(Cc1ccccc1F)Cc1cc2c(cc1Br)OCCO2 | -9.57
CS(=O)(=O)N[C@@H]1CCN(Cc2nccs2)[C@H]1Cc1ccncc1 | -13.1
COC(=O)NCC(=O)NCc1nn(-c2ccccc2)c2c1CCC2 | -4.34
CCC(O)CNC(=O)c1coc(COc2ccc3sc(C)nc3c2)n1 (stereo not given) | 12.2
CCCS(=O)(=O)NC(=O)c1cc(C)n(-c2ccccc2)n1 | 7.41
CN(Cc1cnn(C)c1)C(=O)CCC(=O)c1ccc2c(c1)OCCO2 | -82.6
OCCOCc1n[nH]c2c1CN(Cc1ccccn1)C2 | -7.78
NC(=O)c1ccc(NC(=O)CCN2CCCC(N3CCCC3)C2)cc1 (stereo not given) | 12.4
CC(C)=CCN1C[C@H]2CC[C@@H]1CN(CCC(=O)NCc1ccco1)C2 | 30.2
CCc1ncc2c(n1)CN(CC(O)COc1ccc(C#N)cc1)CC2 (stereo not given) | -0.808
CN(Cc1ccnc2ccccc12)C1CCS(=O)(=O)C1 (stereo not given) | -6.17
COc1ncccc1C(=O)N1CCC(Nc2ccc(C)nn2)CC1 | -4.22
CCCc1nc(N2CCN(CC)CC2)c2c(n1)c(C)nn2CC | -5.26
O=C(CCCc1nc2ccccc2[nH]1)N1CCCC1c1ccncc1 (stereo not given) | 32.6
CS(=O)(=O)N1Cc2ccnn2CC(C(=O)NCc2cccnc2)C1 (stereo not given) | 20.5
CCCc1cc(C(=O)NCCCC(=O)N2Cc3ccccc3C2)[nH]n1 | -6.02
CC(O)CN1CCN(CCOCC(F)(F)F)CC1 (stereo not given) | -7.92
COCCN1CCC(NCc2ccc(C#N)cc2)C1 (stereo not given) | 34.1
Cc1occc1C(=O)N1CCn2c(COCC3CC3)cnc2C1C (stereo not given) | -9.85
O=S(=O)(c1ccccc1)N1CCC2(CCCN2CC2CCCC2)C1 (stereo not given) | -5.67
O=S(=O)(C1CC1)N1CCOC2(CCCN(Cc3ccccn3)C2)C1 (stereo not given) | -5.41

Compound | cytotoxicity at 70.5 h [%]
COCC(=O)NC(C)c1sc(-c2ccccc2F)nc1C (stereo not given) | -2.79
Cn1nccc1C1CCN(CC(O)c2cccc(F)c2)CC1 (stereo not given) | -8.37
Cc1nnc(N2CCC(CCn3ccnc3C)CC2)o1 | -5.62
CC(C)(C)c1nnc(CN2CCN(C(=O)CC3CCCCC3)CC2)o1 | -2.8
Cc1nc(C)n(CC2CCCN(CC(=O)Nc3nnc(C)s3)C2)n1 (stereo not given) | 17.5
Cc1noc(C)c1CN1C[C@@H]2C[C@H](C(=O)NCC3CC3)N(C)[C@@H]2C1 | -11.9
O=C(NCCn1ccnc1)c1ccn(-c2cccc(F)c2)n1 | 12.4
Cc1ccc(CNC[C@H]2Cn3cc(-c4ccccc4)nc3CO2)cc1 | -4.13
O=S1(=O)COCCN1Cc1ccc(Cl)c(F)c1 | -6.23
O=C(NCCc1ccncc1)C1CCN(Cc2ccco2)CC1 | 10.1
CO[C@H]1CN(Cc2nc3ccccc3n2C)CC[C@@]12CCCO2 | -4.2
CC(C)CS(=O)(=O)CC(=O)N(C)Cc1ccc(OC(F)F)cc1 | -3.66
CC(C)c1nccn1C1CCCN(C(=O)c2nccnc2N)C1 (stereo not given) | 17.2
COC[C@@H]1CC[C@H]2[C@H](CCN2S(=O)(=O)Cc2ccccc2)O1 | -1.62
COCCN(CCC#N)S(=O)(=O)c1ccc(F)cc1Cl | 0.577
CCn1cc(CNc2ccc(F)c(F)c2)cn1 | 8.3
O=c1cc(C2CCNCC2)nc(CCc2ccccn2)[nH]1 | -2.52
Cc1nc(C(=O)NS(=O)(=O)c2cccc(C#N)c2)cs1 | 17.6
CN(C)c1nc2c(c(=O)[nH]1)CCN(C(=O)C1CCCO1)C2 (stereo not given) | -8.42
CCOCC(=O)N1CCc2nc(C)nc(NC(C)C)c2CC1 | 16
COCCCNC(=O)C1CCN(CC2(O)CCC(C)CC2)CC1 (stereo not given) | -3.99
CS(=O)(=O)N1CCC2(CC1)CC(CC(=O)NCC1CC1)c1ccccc12 (stereo not given) | 5.79

— ChEMBL document CHEMBL3507680, “University of Dundee, Gates Library screen for HepG2 cell viability”
